# In article PMC7281506, “Bengamide Analogues Show A Potent Antitumor Activity against Colon Cancer Cells: A Preliminary Study” (Marine Drugs, 2020):
# Where two headings read alike, the source gives them in different places.
# Assays:
# [1] = test system: CCD18 normal colon fibroblast cell line; test: Proliferation assay (Sulforhodamine B), CCD18; type: cell-based; conditions: Homo sapiens, CCD18, 72 h treatment, mean ± SD of triplicate samples
# Experimental: (§1) The T84, SW480, HCT15, HT29 and MC38 colon cancer cell lines were selected to assay the bengamide effect. A normal colon fibroblast cell line (CCD18) was included in the analysis. In addition, a cell line of another tumor type (breast cancer) was studied (MCF7). All cell lines were grown in Dulbecco’s modified Eagle’s medium (DMEM) supplemented with fetal bovine serum (10%) and a mix of penicillin-streptomycin (1%) (Sigma-Aldrich, Madrid, Spain). Cell lines were maintained at 37 °C and 5% CO2 in a humidified incubator.
# (§2) The different cell lines were seeded in 48-well plates at a cell density of 3 × 10^3 cells/well for MC38, 5 × 10^3 cells/well for T84, SW480, HCT15 and CCD18, 15 × 10^3 cells/well for HT29 and 4 × 10^3 cells/well for MCF7. After attaching to the well, the treatments, Ben I and Ben V (analogues 5 and 10, respectively), were added in a wide range of doses determined by the cell line from an initial stock of 0.3 mg/mL for Ben I and 6.9 mg/mL for Ben V, both dissolved in water. The treatments were maintained for 72 h. Elapsed this time, the cells were fixed with trichloroacetic acid at 10%, stained with Sulforhodamine B (Sigma-Aldrich, Madrid, Spain) and the dye was lifted with Trizma® (Sigma-Aldrich, Madrid, Spain) at 10% following a previously established protocol. Doxorubicin and 5-Fluorouracil were used as reference compounds in breast and colon cell lines, respectively.
# [2] = test system: T84 colon cancer cell line; test: Proliferation assay (Sulforhodamine B), T84; type: cell-based; conditions: Homo sapiens; T84, 72 h treatment, mean ± SD of triplicate samples
# Experimental: as §1, §2
# [3] = test system: SW480 colon cancer cell line; test: Proliferation assay (Sulforhodamine B), SW480; type: cell-based; conditions: Homo sapiens; SW480, 72 h treatment, mean ± SD of triplicate samples
# Experimental: as §1, §2
# [4] = test system: HCT15 resistant colon cancer cell line; test: Proliferation assay (Sulforhodamine B), HCT15; type: cell-based; conditions: Homo sapiens, HCT-15; HCT15, 72 h treatment, mean ± SD of triplicate samples
# Experimental: as §1, §2
# [5] = test system: HT29 colon cancer cell line; test: Proliferation assay (Sulforhodamine B), HT29; type: cell-based; conditions: Homo sapiens, HT-29; HT29, 72 h treatment, mean ± SD of triplicate samples
# Experimental: as §1, §2
# [6] = test system: MC38 mouse colon cancer cell line; test: Proliferation assay (Sulforhodamine B), MC38; type: cell-based; conditions: MC-38, MC38, 72 h treatment, mean ± SD of triplicate samples
# Experimental: as §1, §2
# [7] = test system: MDA-MB-435 human breast cancer cells; conditions: cited from earlier work
# [8] = test system: cancer cell line A549; set-up: method as in PMID 26514647; conditions: A549, Figure 1; read-out: IC50 (cytotoxicity); cited from earlier work
# [9] = test system: MCF7 breast cancer cell line; test: Proliferation assay (Sulforhodamine B), MCF7; type: cell-based; conditions: Homo sapiens; MCF7, 72 h treatment, mean ± SD of triplicate samples
# Experimental: as §1, §2
# [10] = Hemolysis test using human erythrocytes; type: cell-based; conditions: human erythrocytes isolated from blood of healthy donors, 1 h at 37 °C, highest doses (range 0.01–40 µM), read-out: level of hemolysis
# Experimental: (§3) To evaluate the effect of Ben I and Ben V compounds on blood cells, a hemolysis test using human erythrocytes and a toxicity test using WBC were carried out. Different blood cells (erythrocytes and WBC) were isolated from blood samples taken from healthy donors and exposed to a wide range of doses of both Ben I and Ben V compounds (0.01–40 µM) following our previously described protocol. Briefly, the erythrocytes were diluted 50 times their initial concentration in PBS, seeded in conical bottom 96-well plates and treated with the different treatments for 1 h at 37 °C under stirring. Following this, the plate was centrifuged, 100 µL of the supernatant was transferred to a new 96-well flat-bottom plate and the absorbance at 492 nm was determined. Erythrocytes treated with Triton X-100 to 20% were used as a positive control and as a negative control, erythrocytes treated with PBS were used. In the case of erythrocytes, the percentage of hemolysis (%HR) was calculated with the following formula: %HR=Abs(sample)−Abs(−control)/Abs(+control)−Abs(−control)×100.
# [11] = test system: human erythrocytes; test: Hemolysis test using human erythrocytes; type: cell-based; conditions: light microscopy after treatment
# Experimental: as §3
# [12] = Toxicity test in white blood cells (CCK-8); type: cell-based; conditions: human; WBC, 1 and 12 h of exposure, all doses tested (0.01–40 µM)
# Experimental: as §3, with “Erythrocytes treated with Triton X-100 to 20% were used as a positive control and as a negative control, erythrocytes treated with PBS were used.” left out
# As for the WBCs, they were seeded in flat-bottom 96-well plates in RPMI-1640 medium supplemented with FBS (10%) and a mixture of antibiotic (1%) at a density of 2 × 10^4 cells/well. […] The CCK-8 reagent was added to each well and after 3 h of incubation the absorbance was measured at 450 and 620 nm to determine the viability according to the manufacturer.
# [13] = test system: T84 cells; test: Cell cycle assay (PI, flow cytometry), T84; type: cell-based, human; conditions: T84, 48 h; for G2/M phase change vs control: IC25 and IC50
# Experimental: (§4) To assess the effect of treatments in the cell cycle, a cancer cell line (T84) and a normal cell line (CCD18) were seeded in 6-well plates at a density of 1.5 × 10^5 and 1 × 10^5 cells/well, respectively. […] In addition, untreated cells were used as a negative control and cells treated with 5-FU at its IC50 at 48 h as a positive control. After this time, the culture medium of each treatment was collected in a clean cytometry tube, the wells were washed with PBS at 4 °C and this wash was added to the previous tube. The cells were detached with a trypsin-EDTA mixture and also added to the tube. Next, the tubes were centrifuged at 3500 rpm for 3 min, the supernatant was discarded, and the pellet was resuspended in 100 µL of PBS. After this, 900 µL of 70% cold EtOH was added to each tube while the tubes were vortexed, then the tubes were placed on ice and incubated at 4 °C for 10 min. After this time, two washes were carried out with PBS to remove ethanol and the pellets were resuspended in 250 µL of PBS, to which 250 µL of DNA extraction solution was added (192 mL of 0.2 M Na2HPO4 + 8 mL of 0.1 M citric acid, pH = 7.8). The samples were incubated at 37 °C for 10 min, centrifuged and the supernatant discarded. Finally, 250 µL of propidium iodide (PI)/RNAse (ImmunoStep, Salamanca, Spain) solution was added and the samples were incubated for 10 min at 37 °C in the dark. Thereafter, the samples were analyzed by FAC Scan on a Becton Dickinson analyzer cytometer (Becton Dickinson, Franklin Lakes, NJ, USA).
# [14] = test system: CCD18 normal colon cells; test: Cell cycle assay (PI, flow cytometry), CCD18; type: cell-based, human; conditions: CCD18, 48 h; for SubG1 and S phase change vs control: doses of IC50
# Experimental: as §4
# [15] = clinical candidate; cited from earlier work
# [16] = read-out: IC50 (cytotoxicity), MDA-MB-435, Figure 1
compound,measurement,setting,value
"O=c1[nH]cc(F)c(=O)[nH]1 [5-fluorouracil, reference compound]",IC50,[1],7350 ± 410 nM
same,IC50,[2],2680 ± 160 nM
same,IC50,[3],6350 ± 540 nM
same,IC50,[4],6580 ± 350 nM
same,IC50,[5],6140 ± 940 nM
same,IC50,[6],330 ± 10 nM
CO[C@@H](C(=O)N[C@H]1CCCCN(CCOC(=O)C2CCCCC2)C1=O)[C@H](O)[C@@H](O)[C@H](O)/C=C/C(C)(C)C [Ben III],IC50,[7]; [16],17 nM
CO[C@@H](C(=O)N[C@H]1CCCCNC1=O)[C@H](O)[C@@H](O)[C@H](O)/C=C/C1CCCC1 [Ben II],IC50,[7]; [16],440 nM
CO[C@@H](C(=O)N[C@H]1CCc2ccccc2NC1=O)[C@H](O)[C@@H](O)[C@H](O)/C=C/C(C)(C)C [Ben IV],IC50,[8],9 nM
CO[C@@H](C(=O)N[C@H]1CCCCNC1=O)[C@H](O)[C@@H](O)[C@H](O)/C=C/C(C)(C)C [Ben I],IC50,[1],4700 ± 280 nM
same,IC50,[2],360 ± 30 nM
same,IC50,[3],590 ± 70 nM
same,IC50,[4],1900 ± 150 nM
same,IC50,[5],1020 ± 190 nM
same,IC50,[6],1600 ± 130 nM
same,IC50,[9],490 ± 50 nM
same,hemolysis at 1 h,[10],~2%
same,erythrocytes agglutination or modification of morphology,[11],none of these compounds caused erythrocytes agglutination or modification of their morphology
same,viability,[12],~100%
same,SubG1 phase change vs control,[13],No differences were observed with the control
same,G2/M phase change vs control,[13],statistically significant (p < 0.05) G2/M phase increase
same,G2/M phase change vs control,[14],slight increase
same,SubG1 and S phase change vs control,[14],marked increase
same,IC50,[7]; [16],630 nM
CO[C@@H](C(=O)N[C@@H](C)C(=O)NCCCOC(=O)C1CCCCC1)[C@H](O)[C@@H](O)[C@H](O)/C=C/C(C)(C)C [Ben V],IC50,[1],5080 ± 390 nM
same,IC50,[2],70 ± 20 nM
same,IC50,[3],80 nM
same,IC50,[4],2440 ± 250 nM
same,IC50,[5],660 ± 180 nM
same,IC50,[6],6510 ± 1120 nM
same,IC50,[9],130 ± 10 nM
same,hemolysis at 1 h,[10],~2%
same,erythrocytes agglutination or modification of morphology,[11],none of these compounds caused erythrocytes agglutination or modification of their morphology
same,viability,[12],~100%
same,G0/G1 and S phases change vs control,[13],slight reduction
same,SubG1 phase change vs control,[13],No differences were observed with the control
same,G2/M phase change vs control,[13],this increase was much greater
same,G2/M phase change vs control,[14],slight increase
same,SubG1 and S phase change vs control,[14],marked increase
same,IC50,[7]; MDA-MB-435 human breast cancer cells,4 nM
"CCCCCCCCCCCCCC(=O)O[C@H]1CC[C@H](NC(=O)[C@H](OC)[C@H](O)[C@@H](O)[C@H](O)/C=C/C(C)C)C(=O)NC1 [Bengamide A, bengamide A]",IC50,[7]; [16],1 nM
CCCCCCCCCCCCCC(=O)O[C@H]1CC[C@H](NC(=O)[C@H](OC)[C@H](O)[C@@H](O)[C@H](O)/C=C/C(C)C)C(=O)N(C)C1 [Bengamide B],IC50,[7]; [16],2.4 nM
CO[C@@H](C(=O)N[C@H]1CCCCNC1=O)[C@H](O)[C@@H](O)[C@H](O)/C=C/C(C)C [Bengamide E],IC50,[7]; [16],3300 nM
CO[C@@H](C(=O)N[C@H]1CC[C@@H](OC(=O)C2CCCCC2)CNC1=O)[C@H](O)[C@@H](O)[C@H](O)/C=C/C(C)(C)C [LAF389],IC50,[7]; [16],40 nM
same,pharmacokinetic properties,[15],poor pharmacokinetic properties
"COc1cccc2c1C(=O)c1c(O)c3c(c(O)c1C2=O)C[C@@](O)(C(=O)CO)C[C@@H]3O[C@H]1C[C@H](N)[C@H](O)[C@H](C)O1 [doxorubicin, reference compound]",IC50,[9],40 ± 10 nM
Bengamide F,IC50,[7]; [16],2900 nM
